These results are taken from paper PMC8305389, “Tuning Photodynamic Properties of BODIPY Dyes, Porphyrins’ Little Sisters” (Molecules, 2021).

In general, EC50 refers to the concentration needed to bring the measured effect to its halfway point.

On the set-up of data set [1]: method as in PMID 10546544. Particulars: in MeOH; cited from earlier work.
Data set [2] relates to SK-MEL-28 cells. Briefly: RealTime-Glo Annexin V Apoptosis and Necrosis Assay (cell death determination). It counts as cell-based, human. As to conditions: TRAIL 400 ng/mL, paclitaxel 1 μM, digitonin 25 μg/mL. From the text: A RealTime-Glo™ Annexin V Apoptosis and Necrosis Assay (Promega, Madison, WI, USA) was utilized for the real-time assessment of cell death. This monitors phosphatidylserine exposure on the outer leaflet of the cytoplasmic membrane (increase in luminescence signal) together with binding of the membrane-impermeable probe to DNA (increase in fluorescence signal) that accompanies a loss of membrane integrity, typical for late stages of apoptosis (secondary necrosis) or necrotic type of cell death. According to the manufacturer, this assay uses Annexin V fusion proteins containing complementary subunits of luciferase (Annexin V-LgBiT and Annexin V-SmBiT). The luminescence signal is low until both subunits bind to phosphatidylserine, and in close vicinity form functional luciferase.
For this assay, SK-MEL-28 cells were seeded onto 96-well white clear-bottom plates (Corning, New York, NY, USA) in a 1:1 mixture of DMEM and CO2 independent medium (Gibco; supplemented with 10% FBS, 1% penicillin/streptomycin solution and 4 mM ultraglutamine I). The next day, the medium was replaced with a fresh CO2 independent medium, and cells were incubated overnight. The next day, studied PSs dissolved in a CO2 independent medium in concentrations corresponding to their EC85 were added as described above. […] After mixing, samples were placed into a plate reader with a temperature control (Tecan Spark, Männedorf, Switzerland) and measured each 15 min for 24 h—luminescence (200 ms integration time) and fluorescence (λexc = 485 nm; λemi = 530 nm, BPexc/emi = 20 nm; 10 flashes per well, 40 μs integration time).
Digitonin (25 μg/mL), TRAIL (400 ng/mL), and paclitaxel (1 μM) were used as positive controls for membrane-disturbing-agent induced necrosis, extrinsic-pathway-mediated apoptosis, and intrinsic-pathway-mediated apoptosis, respectively. Cell-free wells (no-cell controls) were used to subtract background luminescence and fluorescence for each time point. […]

For data set [3], the system named is HeLa cells. More on the design: method as in PMID 27682881. Particulars: on HeLa cells; cited from earlier work.
In data set [4] the test system is HeLa cells. The arrangement: method as in PMID 27682881. As to conditions: cited from earlier work; for EC50: HeLa, λ > 570 nm, 12.4 mW cm−2, 15 min, 11.2 J cm−2, read-out: EC50, photodynamic activity; for TC50/EC50, phototherapeutic index: on HeLa cells.
Details of data set [5]: method as in doi:10.1016/0009-2614(96)00838-X. As to conditions: in EtOH; cited from earlier work.
Data set [6] concerns SK-MEL-28 cells. Briefly: Dark toxicity (without irradiation), Neutral Red uptake. As to conditions: 24 h in the dark, compounds precipitated over listed values. It counts as cell-based, human. How it is done:
(§1) The human cervical carcinoma (HeLa) and human melanoma (SK-MEL-28) cell lines were purchased from the American Type Cell Culture Collection (ATCC; Manassas, VA, USA). Both cell lines were cultured in Dulbecco’s modified Eagle’s medium (DMEM) without phenol red (Lonza, Verviers, Belgium) and supplemented with 10% heat-inactivated fetal bovine serum (Sigma-Aldrich (Merck, Darmstadt, Germany), 1% penicillin/streptomycin solution (Lonza), 10 mM HEPES buffer (Lonza), and 4 mM ultraglutamine I (alanyl-L-glutamine; Lonza). The cell lines were cultured in 75 cm^2 tissue culture flasks (TPP, Trasadingen, Switzerland) and maintained in a CO2 incubator at 37 °C in a humidified atmosphere of 5% CO2 and subcultured every 3−4 days. For the cytotoxicity experiments (phototoxicity and dark toxicity), cells were seeded into 96-well plates (TPP) at a density of 7.5 × 10^3 (HeLa and SK-MEL-28) cells per well for 24 h.
(§2) Stock solutions of the investigated compounds were prepared in DMSO at a concentration of 0.5 mM (4b) or 1 mM (all other compounds) and were sterilized by filtration through 0.22 μm syringe MCE filters. The stock solutions were diluted by the above-mentioned cell culture medium to the required concentrations. The maximum DMSO concentration in the medium in the experiments was 1% (2% in case of cpd. 4b). Cytoxicity of DMSO at corresponding concentrations (without studied compounds) was assessed in all cytotoxicity experiments as well—no toxicity against SK-MEL-28 or HeLa cells was observed.
To assess dark toxicities (inherent toxicities of the studied compounds without irradiation), SK-MEL-28 cells were treated with studied PSs for 24 h in the dark. Viability was evaluated after two washing steps using the Neutral Red (NR; Sigma-Aldrich (Merck, Darmstadt, Germany) uptake assay, based on the ability of the living cells to incorporate NR into their intact lysosomes (concentration of NR in cell culture medium was 30 μg/mL and incubation time with NR was 2 h). The absorbance of soluble NR in cell lysate was measured at λ = 540 nm using a Tecan Infinite 200 M plate reader (Tecan, Männedorf, Switzerland). The viability of each experimental group was expressed as the percentage of the untreated controls incubated under the same conditions (100%). After staining (before lysis), the cells were briefly investigated under the microscope to verify changes in cellular morphology and the presence of NR in lysosomes (orange-red spots in the cells). These observations were in agreement with NR measurements.
(§3) The concentrations of the studied compounds that induced a 50% decrease in cellular viability after treatment under the dark conditions (TC50, the median toxic concentration) or after the photodynamic treatment (EC50, the median effective concentration) were calculated using GraphPad Prism software (version 9.1.2; GraphPad Software, Inc., San Diego, CA, USA) for each independent experiment. The data are presented as the means ± standard deviations of these values.

For data set [7], the system named is human melanoma (SK-MEL-28) cells. Briefly: Photodynamic activity (phototoxicity) after light activation, Neutral Red uptake. It counts as cell-based. The procedure:
as §1, §2
(§4) For the photodynamic activity assessment experiments (phototoxicity), both HeLa and SK-MEL-28 cells were incubated overnight (12 h) with the studied compounds. The cells were then carefully and swiftly washed twice with a prewarmed sterile phosphate-buffered saline, fresh cell culture medium was added, and cells were subsequently irradiated for 15 min using a 450 W ozone-free Xe lamp (Newport; intensity reduced to 400 W). The lamp was equipped with a long-pass filter (Newport 20CGA-455) and an 8-cm water filter to cut off undesirable wavelengths and heat radiation, respectively (λ > 455 nm, 15.3 mW cm^−2, 15 min, 13.7 J cm^−2). Cellular viability was measured after an additional 24 h by the above-mentioned NR uptake assay. At least four independent experiments, each in triplicate, were performed.
as §3

In data set [8] the test system is human cervical carcinoma (HeLa) cells. The data set is described as above. It counts as cell-based. Particulars: Homo sapiens, light or radiation study; HeLa; 12 h incubation; λ > 455 nm, 15.3 mW cm−2, 15 min, 13.7 J cm−2. The procedure: as §1, §2, §4, §3
Data set [9] is described as follows: Absorption and fluorescence measurements (quantum yield, lifetime). It counts as physicochemical. As to conditions: MeOH. The procedure:
The singlet oxygen quantum yields (ΦΔ) and the fluorescence quantum yields (ΦF) of tested samples in MeOH were determined using published comparative (relative) methods with rhodamin-G6 used as a reference for fluorescence (ΦF = 0.94 in EtOH [31]), and bengal rose as a reference for singlet oxygen determinations (ΦΔ = 0.76 in MeOH [32]). Singlet oxygen measurements were performed with 1,3-diphenylisobenzofuran as the chemical scavenger of singlet oxygen by monitoring its decomposition at 417 nm. The ΦF values were also determined by an absolute method using an integrating sphere in an FLS1000 fluorimeter (Edinburgh Instruments, Edinburgh, UK). Fluorescence lifetimes were measured on the same fluorimeter upon excitation by HPL510 laser (Edinburgh Instruments, λ = 506.1 nm).

The nature of data set [10]: Photobleaching in serum-containing cell culture medium. It counts as physicochemical. Particulars: 10 µM, 1 h of irradiation, 500W halogen lamp. The procedure:
The photobleaching experiments were performed in a serum-containing cell culture medium at a concentration of 10 µM. The samples were prepared by direct dilution from the 1 mM DMSO stock solution (0.5 mM in case of 4b). The quartz cuvette with the sample (2.5 mL) was irradiated by the 500W halogen lamp (Tip) from a distance of 60 cm at room temperature. The light was filtered through a 7 cm water filter to eliminate heat. The absorption spectra were collected every 10 min. The experiment was performed in triplicate.

Marks after values point to notes of the source that are not given here.

Turning to `O=C(O)c1c(Cl)c(Cl)c(Cl)c(Cl)c1-c1c2cc(I)c(=O)c(I)c-2oc2c(I)c(O)c(I)cc12` [bengal rose], in data set [1], the “singlet oxygen quantum yield (ΦΔ) of reference” value was 0.76.
Turning to `CC(=O)O[C@H]1C(=O)[C@@]2(C)[C@H]([C@H](OC(=O)c3ccccc3)[C@]3(O)C[C@H](OC(=O)[C@H](O)[C@@H](NC(=O)c4ccccc4)c4ccccc4)C(C)=C1C3(C)C)[C@]1(OC(C)=O)CO[C@@H]1C[C@@H]2O` [paclitaxel], the “delay between luminescence (Annexin V) and fluorescence (DNA probe) signal surge, positive controls” value (“delay between luminescence” for short) in the data set with SK-MEL-28 cells [2] was roughly 11.5 h.
As for `CN(C)c1ccc2nc3ccc(=[N+](C)C)cc-3sc2c1` [Methylene blue], the “TC50, dark toxicity” value with HeLa cells [3] is given as 22.7 ± 7.9 ^d μM. In addition, in the data set on HeLa cells [4], the 50% effective concentration (EC50) was 5150 ± 1930 nM and the “TC50/EC50, phototherapeutic index” value is listed as 4.4 ^d.
As to `C[C@@H]1CC[C@@]2(OC1)O[C@H]1[C@@H](O)[C@H]3[C@@H]4CC[C@H]5C[C@@H](O[C@@H]6O[C@H](CO)[C@H](O[C@@H]7O[C@H](CO)[C@@H](O)[C@H](O[C@@H]8OC[C@@H](O)[C@H](O)[C@H]8O)[C@H]7O[C@@H]7O[C@H](CO)[C@H](O)[C@H](O[C@@H]8O[C@H](CO)[C@@H](O)[C@H](O)[C@H]8O)[C@H]7O)[C@H](O)[C@H]6O)[C@H](O)C[C@]5(C)[C@H]4CC[C@]3(C)[C@H]1[C@@H]2C` [digitonin], in the data set on SK-MEL-28 cells [2], the “delay between luminescence” value is “simultaneous and immediate rise in luminescence and fluorescence”.
Take `C=CC1=C(C)c2cc3[nH]c(cc4nc(cc5[nH]c(cc1n2)c(C)c5CCC(=O)O)C(CCC(=O)O)=C4C)c(C)c3C=C` [Pp IX, protoporphyrin IX]: the “TC50, dark toxicity” value in the data set with HeLa cells [3] was >10 ^b,d μM. In addition, in the data set on HeLa cells [4], the EC50 is 800 ± 130 nM and the “TC50/EC50, phototherapeutic index” value is given as >10 ^d.
For `Oc1cccc(-c2c3nc(c(-c4cccc(O)c4)c4ccc([nH]4)c(-c4cccc(O)c4)c4nc(c(-c5cccc(O)c5)c5ccc2[nH]5)CC4)C=C3)c1` [temoporfin], the “TC50, dark toxicity” value in the data set on HeLa cells [3] is listed as 20.6 ± 2.5 ^d μM. In the data set on HeLa cells [4], the EC50 is 45 ± 7 nM and the “TC50/EC50, phototherapeutic index” value is given as 460 ^d.
With `CCN=c1cc2oc3cc(NCC)c(C)cc3c(-c3ccccc3C(=O)OCC)c-2cc1C.Cl` [rhodamin-G6], the “fluorescence quantum yield (ΦF) of reference” value in data set [5] is 0.94.
Consider `CC1=CC(C)=[N+]2C1=C(c1ccc(OCCCCCN3C(=O)c4ccccc4C3=O)cc1)c1c(C)cc(C)n1[B-]2(F)F` [2a, 1,3,5,7-Tetramethyl-8-{4-[5-(phthalimidyl)pentyloxy]phenyl}-4,4-difluoro-4-bora-3a,4a-diaza-s-indacene], for which the “TC50, dark toxicity” value in the data set with SK-MEL-28 cells [6] was >10^b μM. Also, the “TC50/EC50, phototherapeutic index” value in data set [7] is greater than 3.92. In addition, the EC50 in [7] (Homo sapiens, light or radiation study, 12 h incubation, λ > 455 nm, 15.3 mW cm−2, 15 min, 13.7 J cm−2) was 2550 ± 140 nM; in data set [8] it was 3600 ± 190 nM. Further, in [9], the “absorption maximum (λmax)” value was determined as 498 nm. Besides, the “emission maximum (λF)” value in data set [9] turned out to be 507 nm. In addition, in [9] (at λmax), the “extinction coefficient (log ε)” value amounted to 4.77. The “fluorescence quantum yield, absolute method (ΦF(absol))” value in data set [9] (integrating sphere) is reported as 0.52. For the same molecule, the “fluorescence quantum yield, relative method (ΦF(relat))” value in data set [9] (rhodamin-G6 as reference) is listed as 0.49. The “fluorescence lifetime (τF)” value in data set [9] (λexc = 506.1 nm) worked out at 3.27 ns. The “absorption remaining, of the original value, after irradiation (photobleaching)” value in data set [10] is reported as “approximately 87%”.

B1: TRAIL: inducer of extrinsic-pathway apoptosis, positive control (protein, UniProt P50591 1-281, looked up)
Tumor necrosis factor ligand …: MAMMEVQGGPSLGQTCVLIVIFTVLLQSLCVAVTYVYFTNELKQMQDKYSKSGIACFLKEDDSYWDPNDEESMNSPCWQVKWQLRQLVRKMILRTSEETISTVQEKQQNISPLVRERGPQRVAAHITGTRGRSNTLSSPNSKNEKALGRKINSWESSRSGHSFLSNLHLRNGELVIHEKGFYYIYSQTYFRFQEEIKENTKNDKQMVQYIYKYTSYPDPILLMKSARNSCWSKDAEYGLYSIYQGGIFELKENDRIFVSVTNEHLIDMDHEASFFGAFLVG
For the molecule B1, the “delay between luminescence” value in the data set on SK-MEL-28 cells [2] is listed as “approximately 3.5 h”.
